Data on 21 compounds can be found in patent US11999758B2, “Inhibitors of the YAP/TAZ-TEAD interaction and their use in the treatment of cancer” (INVENTIVA, priority 2018, dated 2024).

One data set deals with T1, YAP-TEAD interaction (Homo sapiens, UniProt P28347).
T1 construct: expressed in transfected cells; host or cells: HEK293 GripTite 293 MSR (Invitrogen R795-07)
Put plainly: Cell-based TEAD-GAL4 transactivation assay (luciferase reporter). Conditions: HEK293 cells transfected with TEAD1-Gal4, YAP mutant (S127A, S397A) and luciferase reporter, compounds 0.1 μM to 30 μM; for Emax: HEK293, 24 h, read-out: TEAD-GAL4 Transactivation activity Max Act; for IC50: 24 h. The procedure, abridged: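 HEK293 cells transiently transfected with Gal4-DBD–full-length human TEAD1, full-length YAP S127A/S397A (YAP/TEAD ratio 10) and a 5×GAL4-RE TK-luciferase reporter. Six hours later, compounds added semi-log from 0.1 to 30 μM (DMSO 0.5% control) for 24 h. Luciferase read; IC50 from 3-parameter fit.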

Data set [1] deals with NCI-H2052 mesothelioma cell. The data set can be described thus: Inhibition of malignant mesothelioma tumor cell growth (EdU proliferation). In kind it is cell-based. To be noted: NF2 mutated cell line; FIG. 1 (x). As for the experimental part:
(§1) The tumor cell growth inhibitory activity of the YAP-TEAD interaction inhibitors was evaluated in NCI-H-2052 mesothelioma cell line harboring a NF2 mutation. This cell line was selected based on its mutational status and the ability of a siRNA directed against YAP, TAZ or TEAD1-4 to inhibit cell proliferation. The nuclear localization of YAP at confluence was also taken into account. Based on these observations we were able to classify several “YAP dependent cells” where YAP is clearly nuclear and in which a cell growth inhibition is observed by using siRNA (NCI-H-2052, SKOV-3, ACHN, A549) and the “YAP independent cells” where YAP is preferentially located in the cytoplasm and in which no inhibition of cell growth is observed by using a siRNA (SW620, Met-5a). […] After one day growth in the starvation medium, cells were incubated with compounds. The starting concentration was 30 μM and serial dilutions in DMSO and medium were performed until 0.1 μM to achieve a final DMSO concentration of 0.5%. The cells were then allowed to grow for 3 days, and then, EdU (Invitrogen, Molecular Probe) was added in each well at a final concentration of 10 μM and the cells were returned to the incubator for an additional 24 h. The starvation medium was removed and 100 μl of PFA 4% containing Hoechst dye was adding in each well to fix the cells. Plates were then incubated at rt for 15 min, washed twice with PBS and the cells were permeabilized by adding 100 μl per well of triton-100 containing 0.3% BSA. After 20 min, cells were washed with PBS and EdU detection was performed according to the instructions of the manufacturer. Image acquisition was performed using the ImageXpress Micro and analyzed using the MetaXpress software (Molecular Device). Results were expressed as a percent of inhibition (%) of the cell proliferation values obtained with 0.5% DMSO treatment alone. The cellular response was determined by fitting the concentration response curves using a 3 parameter curve fit equation and determining the concentration that inhibited cell growth between 50% and 100%.

Another data set deals with Met5A cell line. Put plainly: Cell proliferation in YAP-independent cell line (EdU). In kind it is cell-based. To be noted: FIG. 1 (▪). The protocol: as §1

Each structure is given as a SMILES string.

T1 sequence (P28347 whole entry): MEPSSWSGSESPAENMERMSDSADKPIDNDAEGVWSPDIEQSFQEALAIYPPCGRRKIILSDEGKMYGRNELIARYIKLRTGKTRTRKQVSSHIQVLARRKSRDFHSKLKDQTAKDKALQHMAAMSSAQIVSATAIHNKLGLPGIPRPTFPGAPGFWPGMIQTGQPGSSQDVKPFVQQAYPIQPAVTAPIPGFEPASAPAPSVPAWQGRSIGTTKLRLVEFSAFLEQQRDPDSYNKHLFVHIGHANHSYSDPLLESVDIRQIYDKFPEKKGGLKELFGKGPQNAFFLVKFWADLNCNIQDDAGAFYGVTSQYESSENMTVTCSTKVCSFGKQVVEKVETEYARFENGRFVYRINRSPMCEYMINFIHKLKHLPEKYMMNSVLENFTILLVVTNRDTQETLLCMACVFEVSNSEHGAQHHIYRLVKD

In turn, `CN(/N=C/c1ccc2c(c1)COB2O)c1ncnc2c1[nH]c(=O)n2C` [Ex98, 6-[[(E)-(1-hydroxy-3H-2,1-benzoxaborol-5-yl)methyleneamino]-methyl-amino]-9-methyl-7H-purin-8-one] returned a melting point of 180 to 200 °C. On YAP-TEAD interaction, the Emax came to 86% and the IC50 was found to be 1.31 µM.

For the compound `CCN(/N=C/c1ccc2c(c1)COB2O)c1ncnc2c(C)n[nH]c12` [Ex80, N-ethyl-N-[(E)-(1-hydroxy-3H-2,1-benzoxaborol-5-yl)methyleneamino]-3-methyl-1H-pyrazolo[4,3-d]pyrimidin-7-amine], the melting point was in the range of 265 to 276 °C. For the same compound, at YAP-TEAD interaction, the Emax was 69% and 1.96 µM corresponded to half-maximal inhibition (IC50).

Regarding `CN(/N=C/c1ccc2c(c1)COB2O)c1ncnc2c1CC(=O)N2C` [Ex99, 4-[[(E)-(1-hydroxy-3H-2,1-benzoxaborol-5-yl)methyleneamino]-methyl-amino]-7-methyl-5H-pyrrolo[2,3-d]pyrimidin-6-one], the melting point lay in the range of 288 to 307 °C. Moreover, on YAP-TEAD interaction, the Emax amounted to 91% and the IC50 is 2.12 µM.

As for `COCCN(/N=C/c1ccc2c(c1)COB2O)c1ncnc2nc(SC)sc12.Cl` [Ex95, N-[(E)-(1-hydroxy-3H-2,1-benzoxaborol-5-yl)methyleneamino]-N-(2-methoxyethyl)-2-methylsulfanyl-thiazolo[4,5-d]pyrimidin-7-amine, hydrochloride], the melting point lay within 252 to 264 °C. Also, at YAP-TEAD interaction, the Emax is 85% and the IC50 is 0.13 µM.

`CCN(/N=C/c1ccc2c(c1)COB2O)C1=NS(=O)(=O)c2ccccc21` [Ex 27, N-ethyl-N-[(E)-(1-hydroxy-3H-2,1-benzoxaborol-5-yl)methyleneamino]-1,1-dioxo-1,2-benzothiazol-3-amine] had a melting point of 218 °C. On YAP-TEAD interaction, the Emax is 83% and the IC50 worked out at 6.46 µM.

In turn, `CCN(/N=C/c1ccc2c(c1)COB2O)c1ncnc2nc(N(C)C)sc12` [Ex79, N7-ethyl-N7-[(E)-(1-hydroxy-3H-2,1-benzoxaborol-5-yl)methyleneamino]-N2,N2-dimethyl-thiazolo[4,5-d]pyrimidine-2,7-diamine] registered a melting point of 247 to 253 °C. On YAP-TEAD interaction, the Emax was found to be 90% and inhibition was half-maximal at 1.01 µM (IC50).

Take `COc1cc(/C=N/N(CC(C)C)C2=NS(=O)(=O)c3ccccc32)ccc1B(O)O` [Ex 1, [4-[(E)-[(1,1-dioxo-1,2-benzothiazol-3-yl)-isobutyl-hydrazono]methyl]-2-methoxy-phenyl]boronic acid]: at YAP-TEAD interaction, the Emax amounted to 86% and the IC50 is 7.31 µM. In data set [1], the “NCI-H2052 mesothelioma cell proliferation” value was “inhibited”. Also, the “effect in the Met5A cell line” value in the data set with Met5A cell line was “without showing any effect”.

Turning to `Cc1ccc2c(c1)S(=O)(=O)N=C2N(CC(C)C)/N=C/c1ccc2c(c1)COB2O` [Ex 31, N-[(E)-(1-hydroxy-3H-2,1-benzoxaborol-5-yl)methyleneamino]-N-isobutyl-6-methyl-1,1-dioxo-1,2-benzothiazol-3-amine], the melting point is 182 °C. Further, on YAP-TEAD interaction, the Emax came out at 90% and the IC50 is 4.13 µM.

For `COCCN(/N=C/c1ccc2c(c1)COB2O)c1ncnc2c(C)csc12` [Ex94, N-[(E)-(1-hydroxy-3H-2,1-benzoxaborol-5-yl)methyleneamino]-N-(2-methoxyethyl)-7-methyl-thieno[3,2-d]pyrimidin-4-amine], the melting point was 240 to 253 °C. Also, at YAP-TEAD interaction, the Emax worked out at 80% and inhibition was half-maximal at 0.46 µM (IC50).

For the compound `COc1cc(/C=N/N(CC(C)C)c2ncnc3ccsc23)ccc1B(O)O` [Ex 20, [4-[(E)-[isobutyl(thieno[3,2-d]pyrimidin-4-yl)hydrazono]methyl]-2-methoxy-phenyl] boronic acid], on YAP-TEAD interaction, the Emax came out at 87% and the IC50 amounted to 1.34 µM. In data set [1], the “NCI-H2052 mesothelioma cell proliferation” value is “inhibited”. In the data set with Met5A cell line, the “effect in the Met5A cell line” value is recorded as “without showing any effect”.

Compound `COCCN(/N=C/c1ccc2c(c1)COB2O)C1=NS(=O)(=O)c2ccccc21` [Ex 24, N-[(E)-(1-hydroxy-3H-2,1-benzoxaborol-5-yl)methyleneamino]-N-(2-methoxyethyl)-1,1-dioxo-1,2-benzothiazol-3-amine] came in with a melting point of 227 °C. In addition, at YAP-TEAD interaction, the Emax is 76% and the IC50 is 5.19 µM.

Consider `Cc1csc2c(N3N=C(c4ccc5c(c4)COB5O)CCC3C)ncnc12` (stereo not drawn) [Ex118, 4-[6-(1-hydroxy-3H-2,1-benzoxaborol-5-yi)-3-methyl-4,5-dihydro-3H-pyridazin-2-yl]-7-methyl-thieno[3,2-d]pyrimidine], for which, on YAP-TEAD interaction, the Emax came out at 86% and half-maximal inhibition (IC50) required 0.27 µM. Besides, the “NCI-H2052 mesothelioma cell proliferation” value in data set [1] is listed as “inhibited”. Besides, in the data set on Met5A cell line, the “effect in the Met5A cell line” value was “without showing any effect”.

Take `CN(/N=C/c1ccc2c(c1)COB2O)c1ncnc2c1cnn2C` [Ex76, N-[(E)-(1-hydroxy-3H-2,1-benzoxaborol-5-yl)methyleneamino]-N,1-dimethyl-pyrazolo[3,4-d]pyrimidin-4-amine]: the melting point was 250 to 260 °C. Moreover, on YAP-TEAD interaction, the Emax was 86% and half-maximal inhibition (IC50) required 0.96 µM.

For `CCN(/N=C/c1ccc2c(c1)COB2O)c1ncnc2occc12` [Ex 43, N-ethyl-N-[(E)-(1-hydroxy-3H-2,1-benzoxaborol-5-yl)methyleneamino]furo[2,3-d]pyrimidin-4-amine], the melting point was 225 °C. Also, on YAP-TEAD interaction, the Emax is 78% and the IC50 was found to be 0.42 µM.

In the case of `CCN(/N=C/c1ccc2c(c1)COB2O)c1ncnc2nc(N3CCOCC3)sc12` [Ex82, N-ethyl-N-[(E)-(1-hydroxy-3H-2,1-benzoxaborol-5-yl)methyleneamino]-2-morpholino-thiazolo[4,5-d]pyrimidin-7-amine], the melting point was in the range of 183 to 189 °C. At YAP-TEAD interaction, the Emax was 89% and 2.37 µM corresponded to half-maximal inhibition (IC50).

In turn, `COc1cc(/C=N/N(C)c2ncnc3c(C)csc23)ccc1B(O)O` [Ex71, [2-methoxy-4-[(E)-[methyl-(7-methylthieno[3,2-d]pyrimidin-4-yl) hydrazono]methyl]phenyl]boronic acid] returned a melting point of 237 to 267 °C. Further, at YAP-TEAD interaction, the Emax worked out at 68% and the IC50 is 1.14 µM.

On to `Cc1csc2c(N(C)/N=C/c3ccc4c(c3)COB4O)ncnc12` [Ex77, N-[(E)-(1-hydroxy-3H-2,1-benzoxaborol-5-yl)methyleneamino]-N,7-dimethyl-thieno[3,2-d]pyrimidin-4-amine], for which the melting point is 231 °C. In addition, on YAP-TEAD interaction, the Emax came to 82% and the IC50 turned out to be 0.32 µM.

In the case of `CN(/N=C/c1ccc2c(c1)COB2O)c1ncnc2c1[nH]c(=O)n2C12CC(C1)C2` [Ex110, 9-(3-bicyclo[1.1.1]pentanyl)-6-[[(E)-(1-hydroxy-3H-2,1-benzoxaborol-5-yl)methyleneamino]-methyl-amino]-7H-purin-8-one], the melting point was in the range of 259 to 270 °C. On YAP-TEAD interaction, the Emax was 81% and the IC50 amounted to 2.41 µM.

Compound `CCN(/N=C/c1ccc2c(c1)COB2O)c1ncnc2[nH]ccc12` [Ex 39, N-ethyl-N-[(E)-(1-hydroxy-3H-2,1-benzoxaborol-5-yl)methyleneamino]-7H-pyrrolo[2,3-d]pyrimidin-4-amine] registered a melting point of 245 °C. Further, on YAP-TEAD interaction, the Emax stood at 81% and the midpoint of inhibition, the IC50, lay at 1.2 µM.

The compound `CCN(/N=C/c1ccc2c(c1)COB2O)c1ncnc2nc(SC)sc12.Cl` [Ex83, N-ethyl-N-[(E)-(1-hydroxy-3H-2,1-benzoxaborol-5-yl)methyleneamino]-2-methylsulfanyl-thiazolo[4,5-d]pyrimidin-7-amine hydrochloride] returned a melting point of 248 to 264 °C. Moreover, on YAP-TEAD interaction, the Emax worked out at 94% and the IC50 is 0.23 µM.

Consider `CSc1nc2ncnc(N(CC(C)C)/N=C/c3ccc4c(c3)COB4O)c2s1` [Ex92, N-[(E)-(1-hydroxy-3H-2,1-benzoxaborol-5-yl)methyleneamino]-N-isobutyl-2-methylsulfanyl-thiazolo[4,5-d]pyrimidin-7-amine], for which the melting point was in the range of 214 to 246 °C. Also, at YAP-TEAD interaction, the Emax was 91% and the midpoint of inhibition, the IC50, lay at 0.17 µM.

For orientation: IC50 means the concentration that gives 50% inhibition. A low value points to higher potency. In general, melting point refers to the temperature, or range, at which the solid turns liquid.
